Assay results from article PMC6069808, “Biochemical and structural features of diverse bacterial glucuronoyl esterases facilitating recalcitrant biomass conversion” (Biotechnology for Biofuels, 2018).

Tests used:
Assay in all cases: uronate dehydrogenase-coupled assay (K-URONIC), NADH formation
[1] = tested on: T1, OtCE15D; format: biochemical, Opitutus terrae; conditions: pH 7.5, 25 °C, 50 mM sodium phosphate, ≤10% DMSO
T1 construct: recombinant in E. coli Rosetta2(DE3), N-terminal His6 tag and TEV site (modified pET-28a)

[2] = tested on: T2, SuCE15A; format: biochemical, Candidatus Solibacter usitatus; conditions: pH 7.5, 25 °C, 50 mM sodium phosphate, ≤10% DMSO
T2 construct: recombinant in E. coli BL21(DE3), N-terminal His6 tag and TEV site (modified pET-28a)

[3] = tested on: T3, OtCE15C; format: biochemical, Opitutus terrae; conditions: pH 7.5, 25 °C, 50 mM sodium phosphate, ≤10% DMSO
T3 construct: recombinant in E. coli BL21(DE3), N-terminal His6 tag and TEV site (modified pET-28a)

[4] = tested on: T4, OtCE15B; format: biochemical, Opitutus terrae; conditions: pH 7.5, 25 °C, 50 mM sodium phosphate, ≤10% DMSO
T4 construct: recombinant in E. coli BL21(DE3), N-terminal His6 tag and TEV site (modified pET-28a); Tyr in place of the conserved Arg next to catalytic Ser
Excerpt: uronate dehydrogenase-coupled assay (K-URONIC), NADH formation on OtCE15B

[5] = target: T5, SlCE15B (Spirosoma linguale, UniProt D2QTM2); format: biochemical; conditions: pH 6.5, 25 °C, 50 mM sodium phosphate, ≤10% DMSO; range covers four enzymes
T5 construct: gene Slin_6195; recombinant in E. coli with tig coexpression (pTf16), N-terminal His6 tag and TEV site (modified pET-28a)
T5 sequence (D2QTM2 entry or part of it): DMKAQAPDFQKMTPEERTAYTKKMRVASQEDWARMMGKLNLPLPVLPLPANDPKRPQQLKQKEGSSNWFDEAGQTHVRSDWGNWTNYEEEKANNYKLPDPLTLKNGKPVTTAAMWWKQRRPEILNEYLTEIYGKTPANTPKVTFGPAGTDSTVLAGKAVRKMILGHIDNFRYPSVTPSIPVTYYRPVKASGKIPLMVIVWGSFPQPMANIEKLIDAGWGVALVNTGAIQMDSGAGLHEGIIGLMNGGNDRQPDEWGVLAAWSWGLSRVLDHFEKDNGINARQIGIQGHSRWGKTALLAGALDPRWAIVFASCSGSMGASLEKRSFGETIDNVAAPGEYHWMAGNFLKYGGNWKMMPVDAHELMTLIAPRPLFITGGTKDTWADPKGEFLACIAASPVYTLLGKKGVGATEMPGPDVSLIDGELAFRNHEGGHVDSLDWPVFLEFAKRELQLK

| Km [1] [µM] | Km [2] [µM] | Km [3] [µM] | Km [4] [µM] | Km [5] [µM] | Km ([1]; range covers four enzymes) [µM] | Km ([2]; range covers four enzymes) [µM] | Km ([3]; range covers four enzymes) [µM] | SMILES |
| --- | --- | --- | --- | --- | --- | --- | --- | --- |
| 2080 ± 90 | 1240 ± 170 | 2210 ± 120 | – | – | – | – | – | C=CCOC(=O)[C@H]1OC(O)[C@H](O)[C@@H](O)[C@@H]1O (some centres unmarked) [AllylGlcA] |
| – | – | – | 7940 ± 870 | 400 to 600 | 400 to 600 | 400 to 600 | 400 to 600 | O=C(OCc1ccccc1)[C@H]1OC(O)[C@H](O)[C@@H](O)[C@@H]1O (some centres unmarked) [BnzGlcA] |
| 12300 ± 710 | 4310 ± 400 | 4010 ± 55 | – | – | – | – | – | COC(=O)[C@H]1OC(O)[C@H](O)[C@@H](O)[C@@H]1O (some centres unmarked) [MeGlcA] |
